Several values for one entry are separate records, joined by “and”; a condition that tells them apart may be missing. Equal entries are not always repeated. Inconclusive results and toxic doses are left out.
Tested on: P388 leukemia ip, CD2F1 mice, survival T/C
Assay: NCI In Vivo Anticancer Drug Screen. Data for tumor model P388 Leukemia (intraperitoneal) in CD2F1 (CDF1) mice
Conditions: endpoint: median survival time, higher = longer survival
Method in brief: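 Mice carrying the transplanted tumor received test compound or vehicle. Survival was recorded in each group, and the value is the treated-group measurement divided by that of the vehicle-treated control group.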

[1] = dose: 60.0 mg/kg/injection, schedule: Q01DX005 (ip), vehicle: saline with Tween-80
[2] = dose: 120.0 mg/kg/injection, schedule: Q01DX005 (ip), vehicle: saline with Tween-80
[3] = dose: 240.0 mg/kg/injection, schedule: Q01DX005 (ip), vehicle: saline with Tween-80
[4] = dose: 25.0 mg/kg/injection, schedule: Q01DX005 (ip), vehicle: Klucel (hydroxypropylcellulose) (HPC)
[5] = dose: 50.0 mg/kg/injection, schedule: Q01DX005 (ip), vehicle: Klucel (hydroxypropylcellulose) (HPC)
[6] = dose: 100.0 mg/kg/injection, schedule: Q01DX005 (ip), vehicle: Klucel (hydroxypropylcellulose) (HPC)
[7] = dose: 200.0 mg/kg/injection, schedule: Q01DX005 (ip), vehicle: Klucel (hydroxypropylcellulose) (HPC)
[8] = dose: 100.0 mg/kg/injection, schedule: Q04DX003 (ip), vehicle: saline
[9] = dose: 200.0 mg/kg/injection, schedule: Q04DX003 (ip), vehicle: saline

In the case of `CCC12CCCN3CCc4c(n(c5ccc(Br)cc45)C(=O)/C(=N\O)C1)C32` (centres undefined), the T/C [1] is reported as 101 % of control, the T/C [2] is reported as 97 % of control and the T/C [3] is reported as 97 % of control.

For `O=C1c2ccccc2C(=O)N1/N=[N+](\[O-])N1Cc2ccccc2C1`, the T/C [4] was 97 % of control, the T/C [5] was 101 % of control and the T/C [6] was 99 % of control. For the same compound, the T/C [7] was 99 % of control.

`COc1ccc2c(c1)C=CC1OC(C(C)=O)(C(C)=O)C(C=O)=CN21` (centres undefined) was tested, and the T/C [1] was 92 % of control, the T/C [2] was 89 % of control and the T/C [3] was 98 % of control.

For `CN(N=O)C(=O)NCCSSCCNC(=O)N(C)N=O`, the T/C (dose: 20.0 mg/kg/injection, schedule: Q04DX003 (ip), vehicle: saline with Tween-80) was 115 % of control, the T/C (dose: 40.0 mg/kg/injection, schedule: Q01DX009 (ip), vehicle: saline with Tween-80) was 177 % of control and the T/C (dose: 80.0 mg/kg/injection, schedule: Q04DX003 (ip), vehicle: saline with Tween-80) was 155 % of control.

In the case of `Cc1cc2cc(C)nc(C)c2c(C)n1`, the T/C [5] is reported as 94 % of control, the T/C [6] is reported as 89 % of control and the T/C [7] is reported as 92 % of control.

In the case of `O=[N+]([O-])c1ccc2c(N3CCC(CCCC4CCN(c5ncnc6cc([N+](=O)[O-])ccc56)CC4)CC3)ncnc2c1`, the T/C (dose: 50.0 mg/kg/injection, schedule: Q01DX005 (ip), vehicle: saline with Tween-80) is reported as 89 % of control, the T/C (dose: 100.0 mg/kg/injection, schedule: Q01DX005 (ip), vehicle: saline with Tween-80) is reported as 96 % of control and the T/C (dose: 200.0 mg/kg/injection, schedule: Q01DX005 (ip), vehicle: saline with Tween-80) is reported as 100 % of control.

For `CCCCOC(=O)C1(N)CCCC1`, the T/C [8] was 100 % of control and the T/C [9] was 109 % of control.

In the case of `O=C(CCl)NNc1cccc(Cl)n1`, the T/C (dose: 50.0 mg/kg/injection, schedule: Q01DX001 (ip), vehicle: Klucel (hydroxypropylcellulose) (HPC)) is reported as 98 % of control, the T/C (dose: 100.0 mg/kg/injection, schedule: Q01DX001 (ip), vehicle: Klucel (hydroxypropylcellulose) (HPC)) is reported as 98 % of control and the T/C (dose: 200.0 mg/kg/injection, schedule: Q01DX001 (ip), vehicle: Klucel (hydroxypropylcellulose) (HPC)) is reported as 93 % of control.

For `CCOC(=O)c1ccc2c(c1)nc(-c1ccccn1)n2CCc1ccccn1`, the T/C [4] was 100 % of control and 102 % of control, the T/C [5] was 98 % of control and the T/C [6] was 100 % of control and 107 % of control. The T/C [7] was 109 % of control and 110 % of control.

In the case of `O=C1OC2C(O)COC23OC(O)CCC13O` (centres undefined), the T/C (dose: 15.0 mg/kg/injection, schedule: Q01DX005 (ip), vehicle: saline with Tween-80) is reported as 100 % of control, the T/C (dose: 30.0 mg/kg/injection, schedule: Q01DX005 (ip), vehicle: saline with Tween-80) is reported as 102 % of control and the T/C [1] is reported as 102 % of control. For the same compound, the T/C (dose: 60.0 mg/kg/injection, schedule: Q01DX005 (ip), vehicle: saline) was 104 % of control, the T/C [2] was 105 % of control and the T/C (dose: 120.0 mg/kg/injection, schedule: Q01DX005 (ip), vehicle: saline) was 102 % of control. For the same compound, the T/C [3] was 105 % of control and the T/C (dose: 240.0 mg/kg/injection, schedule: Q01DX005 (ip), vehicle: saline) was 102 % of control.

In the case of `CC(=O)OC(C)C(C)N(C)C` (centres undefined), the T/C [8] is reported as 94 % of control and the T/C [9] is reported as 101 % of control.

With `O=S(=O)(SC(S(=O)(=O)c1ccccc1)S(=O)(=O)c1ccccc1)c1ccccc1` the T/C (dose: 200.0 mg/kg/injection, schedule: Q01DX009 (ip), vehicle: Klucel (hydroxypropylcellulose) (HPC)) was 123 % of control and the T/C (dose: 400.0 mg/kg/injection, schedule: Q01DX009 (ip), vehicle: Klucel (hydroxypropylcellulose) (HPC)) was 123 % of control.

`CC(C)C(OCc1ccccc1)C(=O)O` (centres undefined) was tested, and the T/C (dose: 50.0 mg/kg/injection, schedule: Q01DX009 (ip), vehicle: alcohol) was 88 % of control, the T/C (dose: 100.0 mg/kg/injection, schedule: Q01DX009 (ip), vehicle: alcohol) was 98 % of control and the T/C (dose: 200.0 mg/kg/injection, schedule: Q01DX009 (ip), vehicle: alcohol) was 104 % of control.

In the case of `Cc1cc(C)n(-c2cc(N3CCOCC3)ncn2)n1`, the T/C (dose: 50.0 mg/kg/injection, schedule: Q01DX009 (ip), vehicle: saline) is reported as 96 % of control, the T/C (dose: 100.0 mg/kg/injection, schedule: Q01DX009 (ip), vehicle: saline) is reported as 95 % of control and the T/C (dose: 200.0 mg/kg/injection, schedule: Q01DX009 (ip), vehicle: saline) is reported as 98 % of control.

For `CCN(CC)CCOC(=O)C1c2ccccc2-c2ccccc21`, the T/C (dose: 50.0 mg/kg/injection, schedule: Q01DX005 (ip), vehicle: saline + Tween-80 + alcohol) was 99 % of control, the T/C (dose: 100.0 mg/kg/injection, schedule: Q01DX005 (ip), vehicle: saline + Tween-80 + alcohol) was 95 % of control and the T/C (dose: 200.0 mg/kg/injection, schedule: Q01DX005 (ip), vehicle: saline + Tween-80 + alcohol) was 103 % of control.
